The text below walks through data of patent publication US8859768B2, “Heteroaryls and uses thereof” (Millennium Pharmaceuticals, Inc., priority 2010, dated 2014).

Molecules are shown by their SMILES.

The assay deals with T1, Human VPS34 (Homo sapiens, UniProt Q8NEB9).
T1 construct: GST (N); host or cells: SF9 insect cells (baculovirus)
T1 sequence (Q8NEB9 whole entry): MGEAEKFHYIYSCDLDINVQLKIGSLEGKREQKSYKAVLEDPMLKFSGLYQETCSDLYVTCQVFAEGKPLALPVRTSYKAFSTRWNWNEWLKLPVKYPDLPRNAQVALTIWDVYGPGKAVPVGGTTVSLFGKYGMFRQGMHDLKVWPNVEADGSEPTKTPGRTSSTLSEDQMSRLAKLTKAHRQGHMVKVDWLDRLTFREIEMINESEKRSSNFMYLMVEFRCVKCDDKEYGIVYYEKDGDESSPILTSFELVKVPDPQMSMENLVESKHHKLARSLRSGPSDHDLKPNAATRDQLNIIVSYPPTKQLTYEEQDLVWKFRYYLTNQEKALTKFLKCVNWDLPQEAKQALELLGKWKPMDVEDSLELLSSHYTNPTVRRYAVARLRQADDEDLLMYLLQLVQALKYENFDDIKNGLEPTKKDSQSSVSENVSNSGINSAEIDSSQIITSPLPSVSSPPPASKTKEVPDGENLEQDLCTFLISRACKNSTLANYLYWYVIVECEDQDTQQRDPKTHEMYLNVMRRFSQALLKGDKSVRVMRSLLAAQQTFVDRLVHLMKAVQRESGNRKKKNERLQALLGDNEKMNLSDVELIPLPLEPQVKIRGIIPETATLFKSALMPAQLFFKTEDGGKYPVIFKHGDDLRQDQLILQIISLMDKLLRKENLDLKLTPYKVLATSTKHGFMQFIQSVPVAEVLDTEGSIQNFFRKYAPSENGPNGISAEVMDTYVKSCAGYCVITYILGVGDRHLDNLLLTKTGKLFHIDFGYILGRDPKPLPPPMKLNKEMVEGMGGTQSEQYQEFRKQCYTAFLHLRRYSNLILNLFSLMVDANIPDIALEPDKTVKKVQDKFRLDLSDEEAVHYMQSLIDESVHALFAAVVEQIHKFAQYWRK
The assay is described as follows: Human VPS34 Enzyme Assay (Adapta TR-FRET). It counts as biochemical. The following applies: compound at 1.111 μM; read-out: Average VPS34 % INH @ 1.111 μM. On the procedure:
VPS34 (accession number GB:BC033004) was cloned into pDEST20-Thombin as N-terminal GST tagged fusion proteins using the Gateway system (Invitrogen, catalog#11804-013). The sequences were verified before recombinant protein expression using the Baculovirus Expression System with Gateway® Technology.
For expression VPS34 was infected at 1MOI in SF9 cells and harvested 72 hours post infection.
For purification, VPS34 is purified by Glutathione Sepharose 4 Fast Flow (GE Healthcare #17-5132-03) followed by HiTrap Q (GE Healthcare #17-1153-01).
Human VPS34 Enzyme Assay Method
100 nL compounds in DMSO are added to wells of a 384 well microtitre plate (Greiner 780076). At room temperature: 5 ul VPS34 reaction buffer (Invitrogen Assay Buffer Q (diluted 1 in 5 with nanopure water) plus 2 mM DTT and 2 mM MnCl2) containing ATP (20 uM, Promega) and 200 uM PI-PS substrate (Invitrogen PV5122) is added followed immediately by 5 ul VPS34 reaction buffer (as above) containing VPS34 (5 nM, Millennium Protein Sciences Group) and the mixture is incubated with shaking at room temperature for 1 hour. Then 5 ul VPS34 stop-detect mix (as per Invitrogen Adapta Assay kit (PV5009) instructions (contains kinase quench buffer, TR-FRET buffer, Adapta Eu anti-ADP antibody and Alexa Fluor 647 ADP tracer)) is added to quench the reaction. The plates are then incubated for 30 minutes at room temperature with shaking and then read on a BMG PheraStar Plus reader.
3) VPS34 is assayed using Adapta™ Universal Kinase Assay Kit (Invitrogen).
A general note: Time-resolved FRET reads energy transfer from a long-lived donor to a nearby acceptor.
Consider `CC(=O)Nc1cc(-c2nc(C(=O)NC[C@@H](C)O)c(-c3ccccc3Cl)o2)c(C)cn1` (stereo in doubt) [Compound I-62, 2-(2-acetamido-5-methylpyridin-4-yl)-5-(2-chlorophenyl)-N-(2-hydroxypropyl)-1,3-oxazole-4-carboxamide], for which the inhibition at 1.111 µM was 51%.
As to `CC(=O)Nc1cc(-c2cc(C(=O)NC[C@@H](C)O)c(-c3ccccc3Cl)o2)c(C)cn1` (stereo in doubt) [Compound I-66, 5-(2-acetamido-5-methylpyridin-4-yl)-2-(2-chlorophenyl)-N-(2-hydroxypropyl)-3-furamide], the inhibition at 1.111 µM was determined as 131%.
`CC(=O)Nc1cc(-c2cc(C(N)=O)c(-c3ccccc3Cl)o2)ccn1` [Compound I-1, 5-[2-(acetylamino)pyridin-4-yl]-2-(2-chlorophenyl)-3-furamide]: the inhibition at 1.111 µM was 120%.
For `CC(=O)Nc1cc(-c2cc(C(=O)O)c(-c3ccccc3Cl)o2)ccn1` [Compound I-2, 5-[2-(acetylamino)pyridin-4-yl]-2-(2-chlorophenyl)-3-furoic acid], the inhibition at 1.111 µM came to 124%.
Turning to `CC(=O)Nc1cc(-c2nc(C(N)=O)c(-c3ccccc3Cl)o2)c(C)cn1` [Compound I-3, 2-[2-(acetylamino)-5-methylpyridin-4-yl]-5-(2-chlorophenyl)-1,3-oxazole-4-carboxamide], the inhibition at 1.111 µM stood at 112%.
Regarding `CC(=O)Nc1cc(-c2nc(-c3nnc[nH]3)c(-c3ccccc3Cl)o2)c(C)cn1` [Compound I-4, N-{4-[5-(2-chlorophenyl)-4-(4H-1,2,4-triazol-3-yl)-1,3-oxazol-2-yl]-5-methylpyridin-2-yl}acetamide], the inhibition at 1.111 µM is 118%.
Regarding `CC(=O)Nc1cc(-c2nc(-c3ccccc3Cl)c(C(N)=O)o2)c(C)cn1` [Compound I-5, 2-[2-(acetylamino)-5-methylpyridin-4-yl]-4-(2-chlorophenyl)-1,3-oxazole-5-carboxamide], the inhibition at 1.111 µM came to 108%.
For the compound `CC(=O)Nc1cc(-c2nc(C(=O)O)c(-c3ccccc3Cl)o2)c(C)cn1` [Compound I-6, 2-[2-(acetylamino)-5-methylpyridin-4-yl]-5-(2-chlorophenyl)-1,3-oxazole-4-carboxylic acid], the inhibition at 1.111 µM is 99%.
Take `CC(=O)Nc1cc(-c2cc(-c3nnc[nH]3)c(-c3cc(CN(C)C)ccc3Cl)o2)c(C)cn1` [Compound I-7, N-{4-[5-{2-chloro-5-[(dimethylamino)methyl]phenyl}-4-(4H-1,2,4-triazol-3-yl)-2-furyl]-5-methylpyridin-2-yl}acetamide]: the inhibition at 1.111 µM turned out to be 147%.
As for `CC(=O)Nc1ccc(-c2nc(-c3nnc[nH]3)c(-c3ccccc3Cl)o2)cc1` [Compound I-8, N-{4-[5-(2-chlorophenyl)-4-(4H-1,2,4-triazol-3-yl)-1,3-oxazol-2-yl]phenyl}acetamide], the figure is 7%; as for `CC(=O)Nc1cc(-c2nc(C(=O)NCc3ccco3)c(-c3ccccc3Cl)o2)c(C)cn1` [Compound I-9, 2-(2-acetamido-5-methylpyridin-4-yl)-5-(2-chlorophenyl)-N-(2-furylmethyl)-1,3-oxazole-4-carboxamide], 64%.
As for `CC(=O)Nc1cc(-c2nc(-c3ncco3)c(-c3ccccc3Cl)o2)c(C)cn1` [Compound I-10, N-{4-[5′-(2-chlorophenyl)-2,4′-bi-1,3-oxazol-2′-yl]-5-methylpyridin-2-yl}acetamide], the figure is 132%; as for `CC(=O)Nc1cc(-c2nc(C(=O)NCCC(C)C)c(-c3ccccc3Cl)o2)c(C)cn1` [Compound I-11, 2-(2-acetamido-5-methylpyridin-4-yl)-5-(2-chlorophenyl)-N-(3-methylbutyl)-1,3-oxazole-4-carboxamide], 22%; as for `CC(=O)Nc1cc(-c2cc(C(=O)NCCn3ccnc3)c(-c3ccccc3Cl)o2)c(C)cn1` [Compound I-12, 5-(2-acetamido-5-methylpyridin-4-yl)-2-(2-chlorophenyl)-N-[2-(1H-imidazol-1-yl)ethyl]-3-furamide], 61%.
For `CC(=O)Nc1cc(-c2nc(C(=O)NCCCCO)c(-c3ccccc3Cl)o2)c(C)cn1` [Compound I-13, 2-(2-acetamido-5-methylpyridin-4-yl)-5-(2-chlorophenyl)-N-(4-hydroxybutyl)-1,3-oxazole-4-carboxamide], the inhibition at 1.111 µM was 95%.
For the compound `CC(=O)Nc1cc(-c2cc(C(=O)NC3CCC3)c(-c3ccccc3Cl)o2)c(C)cn1` [Compound I-14, 5-(2-acetamido-5-methylpyridin-4-yl)-2-(2-chlorophenyl)-N-cyclobutyl-3-furamide], the inhibition at 1.111 µM is 88%.
For the compound `CC(=O)Nc1cc(-c2cc(C(=O)Nc3nccs3)c(-c3ccccc3Cl)o2)c(C)cn1` [Compound I-15, 5-(2-acetamido-5-methylpyridin-4-yl)-2-(2-chlorophenyl)-N-(1,3-thiazol-2-yl)-3-furamide], the inhibition at 1.111 µM turned out to be 103%.
With `CC(=O)Nc1cc(-c2nc(-c3cc(CN4CCCC4)ccc3Cl)c(-c3nnc[nH]3)o2)c(C)cn1` [Compound I-16, N-(4-{4-[2-chloro-5-(pyrrolidin-1-ylmethyl)phenyl]-5-(4H-1,2,4-triazol-3-yl)-1,3-oxazol-2-yl}-5-methylpyridin-2-yl)acetamide], the inhibition at 1.111 µM turned out to be 131%.
Consider `CC(=O)Nc1cc(-c2cc(-c3nnc[nH]3)c(N3CCCS3(=O)=O)o2)c(C)cn1` [Compound I-17, N-{4-[5-(1,1-dioxidoisothiazolidin-2-yl)-4-(4H-1,2,4-triazol-3-yl)-2-furyl]-5-methylpyridin-2-yl}acetamide], for which the inhibition at 1.111 µM was 127%.
Turning to `O=C(Nc1cc(-c2nc(-c3nnc[nH]3)c(-c3ccccc3Cl)o2)ccn1)C1CC1` [Compound I-18, N-{4-[5-(2-chlorophenyl)-4-(4H-1,2,4-triazol-3-yl)-1,3-oxazol-2-yl]pyridin-2-yl}cyclopropanecarboxamide], the inhibition at 1.111 µM came to 120%.
As for `CC(=O)Nc1cc(-c2cc(C(=O)Nc3ccccc3)c(-c3ccccc3Cl)o2)c(C)cn1` [Compound I-19, 5-(2-acetamido-5-methylpyridin-4-yl)-2-(2-chlorophenyl)-N-phenyl-3-furamide], the inhibition at 1.111 µM came out at 48%.
With `CC(=O)Nc1cc(-c2nc(C(=O)NCc3ccccn3)c(-c3ccccc3Cl)o2)c(C)cn1` [Compound I-20, 2-(2-acetamido-5-methylpyridin-4-yl)-5-(2-chlorophenyl)-N-(pyridin-2-ylmethyl)-1,3-oxazole-4-carboxamide], the inhibition at 1.111 µM is 37%.
In the case of `CC(=O)Nc1cc(-c2nc(C(=O)NC(C)C)c(-c3ccccc3Cl)o2)c(C)cn1` [Compound I-21, 2-(2-acetamido-5-methylpyridin-4-yl)-5-(2-chlorophenyl)-N-isopropyl-1,3-oxazole-4-carboxamide], the inhibition at 1.111 µM is 25%.
As for `COC(CNC(=O)c1cc(-c2cc(NC(C)=O)ncc2C)oc1-c1ccccc1Cl)OC` [Compound I-22, 5-(2-acetamido-5-methylpyridin-4-yl)-2-(2-chlorophenyl)-N-(2,2-dimethoxyethyl)-3-furamide], the figure is 110%; as for `CC(=O)Nc1cc(-c2cc(-c3nnc[nH]3)c(-c3ccccc3Cl)o2)c(C)cn1` [Compound I-23, N-{4-[5-(2-chlorophenyl)-4-(4H-1,2,4-triazol-3-yl)-2-furyl]-5-methylpyridin-2-yl}acetamide], 139%.
As for `CC(=O)Nc1cc(-c2cc(C(=O)NCCCn3ccnc3)c(-c3ccccc3Cl)o2)c(C)cn1` [Compound I-24, 5-(2-acetamido-5-methylpyridin-4-yl)-2-(2-chlorophenyl)-N-[3-(1H-imidazol-1-yl)propyl]-3-furamide], the figure is 102%; as for `CC(=O)Nc1cc(-c2nc(C(=O)NCCOCCO)c(-c3ccccc3Cl)o2)c(C)cn1` [Compound I-25, 2-(2-acetamido-5-methylpyridin-4-yl)-5-(2-chlorophenyl)-N-[2-(2-hydroxyethoxy)ethyl]-1,3-oxazole-4-carboxamide], 41%; as for `CC(=O)Nc1cc(-c2cc(-c3nnc[nH]3)c(N3CCCC(N(C)C)C3)o2)c(C)cn1` (stereo not drawn) [Compound I-26, N-(4-{5-[3-(dimethylamino)piperidin-1-yl]-4-(4H-1,2,4-triazol-3-yl)-2-furyl}-5-methylpyridin-2-yl)acetamide], 129%.
For `CC(=O)Nc1cc(-c2cc(C(C)=O)c(-c3ccccc3Cl)o2)c(C)cn1` [Compound I-27, N-{4-[4-acetyl-5-(2-chlorophenyl)-2-furyl]-5-methylpyridin-2-yl}acetamide], the inhibition at 1.111 µM was found to be 133%.
In the case of `CC(=O)Nc1cc(-c2nc(-c3cc(CN4CCCC4)ccc3Cl)c(C(N)=O)o2)c(C)cn1` [Compound I-28, 2-(2-acetamido-5-methylpyridin-4-yl)-4-[2-chloro-5-(pyrrolidin-1-ylmethyl)phenyl]-1,3-oxazole-5-carboxamide], the inhibition at 1.111 µM was 81%.
